Test results taken from publication PMC4330362, “The ATP-mediated formation of the YgjD–YeaZ–YjeE complex is required for the biosynthesis of tRNA t^6A in Escherichia coli” (Nucleic Acids Research, 2015).
Each block holds one molecule with its values, some of them ahead of it.

Assays:
YgjD = molecular target: T1, YgjD (Escherichia coli, UniProt P05852); experiment: ITC; assay type: binding
T1 construct: gene tsaD; full length (337 residues), C-terminal 6xHis tag, expressed in E. coli BL21(DE3) from pET9a; homodimer in solution

YgjD–YeaZ [1] = molecular target: T2, YgjD–YeaZ (Escherichia coli, UniProt P05852+P76256); experiment: ITC; assay type: binding
T2 construct: gene tsaD; 1:1 heterodimer of full-length YgjD (337 residues) and YeaZ (231 residues), each C-terminally 6xHis tagged, expressed in E. coli BL21(DE3); nucleotide sites in the YgjD active site and at the YgjD-YeaZ interface

YjeE [2] = molecular target: T3, YjeE (Escherichia coli, UniProt P0AF67, W109A); experiment: ITC; assay type: binding
T3 construct: gene tsaE; full length, C-terminal Strep II tag, expressed in E. coli BL21(DE3) from pET28a; monomer-dimer equilibrium

YjeE [3] = molecular target: T4, YjeE (Escherichia coli, UniProt P0AF67); experiment: ITC; assay type: binding
T4 construct: gene tsaE; full length, C-terminal Strep II tag, expressed in E. coli BL21(DE3) from pET28a; monomer-dimer equilibrium

YgjD–YeaZ [4] = molecular target: T2, YgjD–YeaZ; experiment: crystal structure […] A; assay type: binding; conditions: cocrystallised with ATP and MgCl2; two ADP: YgjD active site (Mg2+, Fe) and YgjD-YeaZ interface; no heat signal by ITC
[5] = test system: Nc1ncnc2c1ncn2[C@@H]1O[C@H](COP(=O)(O)OP(=O)(O)OP(=O)(O)O)[C@@H](O)[C@H]1O; experiment: purified protein; conditions: 50 mM HEPES pH 7.5, 20 °C, YjeE at 2 molar equivalents
[6] = molecular target: YeaZ (Salmonella typhimurium) (UniProt Q7CQE0); conditions: cited from earlier work
YjeE [7] = molecular target: T5, YjeE (Escherichia coli, UniProt P0AF67, Y82A); experiment: ITC; assay type: binding
T5 construct: gene tsaE; full length, C-terminal Strep II tag, expressed in E. coli BL21(DE3) from pET28a; monomer-dimer equilibrium

YgjD–YeaZ [8] = molecular target: T6, YgjD–YeaZ (Escherichia coli, UniProt P05852+P76256, P05852:V85E); experiment: crystal structure; assay type: binding; conditions: crystallised in presence of ATP; no nucleotide at the interface
T6 construct: gene tsaD; 1:1 heterodimer of full-length YgjD (337 residues) and YeaZ (231 residues), each C-terminally 6xHis tagged, expressed in E. coli BL21(DE3); nucleotide sites in the YgjD active site and at the YgjD-YeaZ interface

[9] = molecular target: the molecule itself; experiment: SEC; HiLoad 16/60 Superdex 75 pg; single proteins and equimolar mixture

Kd (YgjD): 1.62 ± 0.088 µM | Kd (YgjD–YeaZ [1]): 0.7 ± 0.011 µM
Molecule: Nc1ncnc2c1ncn2[C@@H]1O[C@H](COP(=O)(O)CP(=O)(O)OP(=O)(O)O)[C@@H](O)[C@H]1O [AMPCPP]

Molecule: Nc1ncnc2c1ncn2[C@@H]1O[C@H](COP(=O)(O)OP(=O)(O)O)[C@@H](O)[C@H]1O [ADP]
Kd (YjeE [2]): 4.83 ± 0.022 µM | Kd (YjeE [3]): 6.54 ± 0.053 µM | crystal structure 2.3 A (YgjD–YeaZ [4]): An ADP molecule could unequivocally fit the density

Molecule: YgjD–YeaZ–2xYjeE complex (Escherichia coli K-12)
Km [5]: 644 µM | kcat [5]: 0.4 s⁻¹

Molecule: YgjD (from UniProt P40731)
Kd [6]: 0.3 µM

Molecule: Nc1ncnc2c1ncn2[C@@H]1O[C@H](CO[P@](=O)(O)O[P@](=O)(O)O[P@@](=O)(O)S)[C@@H](O)[C@H]1O [ATPγS]
Kd (YjeE [3]): 20.4 ± 1.32 µM | Kd (YjeE [7]): 8.9 ± 0.013 µM

Molecule: Nc1ncnc2c1ncn2[C@@H]1O[C@H](COP(=O)(O)OP(=O)(O)OP(=O)(O)O)[C@@H](O)[C@H]1O [ATP]
crystal structure (YgjD–YeaZ [8]): YgjD^V85E(ATP)–YeaZ crystal structures under accession number

B1: YgjD (TsaD) (enzyme, Escherichia coli K-12, UniProt P05852 1-337, looked up)
chain: MRVLGIETSCDETGIAIYDDEKGLLANQLYSQVKLHADYGGVVPELASRDHVRKTVPLIQAALKESGLTAKDIDAVAYTAGPGLVGALLVGATVGRSLAFAWDVPAIPVHHMEGHLLAPMLEDNPPEFPFVALLVSGGHTQLISVTGIGQYELLGESIDDAAGEAFDKTAKLLGLDYPGGPLLSKMAAQGTAGRFVFPRPMTDRPGLDFSFSGLKTFAANTIRDNGTDDQTRADIARAFEDAVVDTLMIKCKRALDQTGFKRLVMAGGVSANRTLRAKLAEMMKKRRGEVFYARPEFCTDNGAMIAYAGMVRFKAGATADLGVSVRPRWPLAELPAA
notes: YgjD (TsaD), Escherichia coli K-12, 337 residues; gene amplified from genomic DNA, cloned in pET9a; Alone it is a homodimer by gel filtration and SAXS; also called Ec–YgjD; source: E. coli BL21(DE3), purified (details in the Supplementary Materials)
stoichiometry N [9]: 2
